Experiments:
TXA2 synthetase = target: T1, TXA2 synthetase (Rattus norvegicus, UniProt P49430); assay: TXA2 synthetase inhibition in vivo, TXB2 concentration in serum; details: single oral dose of 10 mg/kg, TXB2 in serum two hours after administration
T1 construct: determining the concentration of TXB2 in the serum of the animals killed two hours after the administration of the drug; from tissue; host or cells: living rat, serum sampled after oral dosing (endogenous enzyme)
T1 sequence (P49430 1-533): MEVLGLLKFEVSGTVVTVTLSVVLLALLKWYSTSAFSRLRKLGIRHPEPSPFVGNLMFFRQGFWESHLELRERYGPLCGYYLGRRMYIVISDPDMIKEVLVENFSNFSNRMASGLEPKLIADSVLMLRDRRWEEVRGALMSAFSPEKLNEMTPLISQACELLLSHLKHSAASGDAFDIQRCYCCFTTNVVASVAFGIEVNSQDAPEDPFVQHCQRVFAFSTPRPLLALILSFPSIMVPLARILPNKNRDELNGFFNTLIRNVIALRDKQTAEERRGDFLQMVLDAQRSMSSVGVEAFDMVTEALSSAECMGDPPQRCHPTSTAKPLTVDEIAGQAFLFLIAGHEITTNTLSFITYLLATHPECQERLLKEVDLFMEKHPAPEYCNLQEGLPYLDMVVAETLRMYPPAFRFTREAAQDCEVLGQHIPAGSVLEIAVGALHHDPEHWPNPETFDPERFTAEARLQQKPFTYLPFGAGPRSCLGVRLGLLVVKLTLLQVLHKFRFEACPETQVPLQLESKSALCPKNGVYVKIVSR
Description: The activity on the TXA2 synthetase was evaluated, e.g., in rat by administering the compounds at a single oral dose of 10 mg/kg and determining the concentration of TXB2 in the serum of the animals killed two hours after the administration of the drug.

[1] = acute toxicity (LD50) in the mouse; details: in vivo, po, per os, single administration of increasing doses, measured on the seventh day, read-out: approximate acute toxicity (LD50)
Description: In view of their high therapeutic index, the compounds of the invention can be used safely in medicine. For example, the approximate acute toxicity (LD50) of the compounds 7-trans-[2-(3-pyridyl)-ethenyl]-5H-thiazolo[3,2-a]pyrimidine-5-one and 2-chloro-7-trans-[2-(3-pyridyl)-ethenyl]-5H-thiazolo[3,2-a]pyrimidine-5-one in the mouse determined by single administration of increasing doses and measured on the seventh day of treatment, is higher than 800 mg/kg per os. Analogous toxicity data have been found for other compounds of the invention.

[2] = system: carrageenin induced oedema; assay: carrageenin induced oedema in the hind paw of rats; format: in vivo; details: approximate ED25; rat, oral administration; read-out: Anti-inflammatory activity Carrageenin induced oedema ED25
Excerpt: (§1) A. Winter et al. (J. Pharmac. Exp. Therap. 1963, 141, 369) and P. Lence (Arch. Int. Pharmacodyn., 1962, 136, 237), and (B) the Reversed Passive Arthus Reaction (RPAR) in rat paw, induced by the interaction of antigen and antibody resulting in the formation of precipitating immune complex, followed by fixation of complement and accumulation of polymorphonuclear leucocytes at a focal point (D. K. GEMMELL, J. COTTNEY and A. J. LEWIS, Agents and Actions 9/1 pag. 107, 1979). The compounds of this invention are also endowed with analgesic activity. The analgesic activity was assessed, for example, by means of phenylquinone induced writhing test in mice according to Siegmund [Siegmund et al. Proc. Soc. Exper. Biol. Med., 95, 729 (1957)].
(§2) Therefore the compounds of the invention may be used in therapy to treat pains and inflammatory processes, such as for example, rheumatoid arthritis and osteoarthrosis. The following Tables II and III show, for example, the approximate ED25 values of the anti-inflammatory activity in the above tests in the rat after oral administration for some compounds of this invention: […]

restraint ulcers in rats = assay: inhibition of restraint ulcers in rats (Bonfils method); format: in vivo; details: po; approximate ED50; rat, per os one hour before immobilization, lesions counted 4 hours after immobilization; read-out: Antiulcerogenic activity p.o. ED50
Excerpt: The compounds of the present invention are active on the gastroenteric system, in particular they are endowed with anti-ulcerogenic and gastric anti-secretory activity and are therefore useful in therapy, for example in the prevention and treatment of peptic, e.g. duodenal, gastric and esophageal, ulcers and to inhibit gastric acid secretion. The compounds of the invention are also useful for reducing the undesiderable gastrointestinal side-effects resulting from systemic administration of anti-inflammatory prostaglandin synthetase inhibitors and may be, therefore, used for this purpose in association with them. The anti-ulcerogenic activity of the compounds of the invention is shown, e.g., by the fact that they are active in the test of the inhibition of restraint ulcers in rats, according to the method of Bonfils et al., (Therapie, 1960, 5, 1096; Jap. J. Pharmac. 1945, 43, 5). Six Sprague-Dawley male rats (100-120 g) fasted 24 hours were used for the experiment: a square flexible small-mesh wire netting was used for the immobilization and 4 hours after the immobilization the rats were sacrificed, their stomachs were removed and the lesions counted under a dissecting microscope. The tested compounds were administered per os (p.o.) one hour before the immobilization.

[3] = system: gastric secretion in rats; assay: gastric antisecretory activity, pylorus ligature technique (Shay method); format: in vivo; details: approximate ED50; rat, intraduodenal administration at the time of ligature, 4 hours
Description: Gastric antisecretory activity was evaluated in rats by the pylorus ligature technique. Six Sprague-Dawley male rats (110-130 g) were used for each group. Twenty-four hours before the test, the rats were deprived of food but their water supply was maintained. On the day of the operation, the pylorus was ligated under light ether anaesthesia. Each compound was injected intraduodenally (i.d.) at the time of the ligature. Four hours after the ligature the rats were sacrificed, the stomach secretion was collected and centrifuged at 3500 r.p.m. for 10 minutes, and the volume, less sediment, was determined.
The amount of the free hydrochloric acid in the gastric juice was determined by titration against 0.01 N sodium hydroxide to pH 7.0.

[4] = system: Reversed Passive Arthus Reaction (RPAR); assay: Reversed Passive Arthus Reaction (RPAR) in rat paw; format: in vivo; details: approximate ED25, oral administration, read-out: Anti-inflammatory activity RPAR reaction ED25
Excerpt: as §1, §2

[5] = system: phenylquinone induced writhing; assay: phenylquinone induced writhing test (Siegmund); format: in vivo, mice; details: Mus musculus; approximate ED25; printed 'in the rat', after oral administration; read-out: analgesic activity ED25, phenylquinone-induced writhing test
Excerpt: as §1
With regard to the analgesic activity, one of the preferred compounds of this invention is, for example, the compound 2-chloro-7-trans-[2-(3-pyridyl)-ethenyl]-5H-thiazolo[3,2-a]pyrimidine-5-one, wich has an approximate ED25 value of 25 mg/kg in the phenylquinone-induced writhing test in the rat, after oral administration. Furthermore the compounds of this invention are effective in the inhibiting the TXA2 synthetase in vivo and may be therefore useful in therapy, for example, in the prevention and treatment of all kinds of thrombosis, peripheral vasculopaties and coronary artery diseases.

Structure (SMILES)	TXA2 synthetase inhibiting activity (TXA2 synthetase)	LD50 at 168 h [1] [mg/kg]	ED25 [2] [mg/kg]	ED50 (restraint ulcers in rats) [mg/kg]	ED50 [3] [mg/kg]	ED25 [4] [mg/kg]	ED25 [5] [mg/kg]
Cc1c(/C=C/c2cccnc2)nc2sccn2c1=O [6-methyl-7-trans-[2-(3-pyridyl)-ethenyl]-5H-thiazolo[3,2-a]pyrimidine-5-one]	having TXA2 synthetase inhibiting activity	–	–	–	–	–	–
O=c1cc(/C=C/c2cccnc2)nc2sccn12 [7-trans-[2-(3-pyridyl)-ethenyl]-5H-thiazolo[3,2-a]pyrimidine-5-one]	–	> 800	6	9	–	–	–
COc1c(/C=C/c2cccnc2)nc2sccn2c1=O [6-methoxy-7-trans-[2-(3-pyridyl)-ethenyl]-5H-thiazolo[3,2-a]pyrimidine-5-one]	–	–	15	–	~30	–	–
O=c1cc(/C=C/c2cccnc2)nc2sc(Cl)cn12 [2-chloro-7-trans-[2-(3-pyridyl)-ethenyl]-5H-thiazolo[3,2-a]pyrimidine-5-one]	–	> 800	16	10	–	25	~25

Reference: patent US4444773A, “Substituted thiazolo[3,2-a]pyrimidines and process for their preparation” (Farmitalia Carlo Erba S.p.A., priority 1981, dated 1984)
